Data set [1] has as its system estradiol production (relative to human aldosterone synthase). As to the kind of experiment: Selectivity ratio of IC50 for estradiol production in human H295R cells to IC50 for human aldosterone synthase. Type of data set: ADME, cell-based. The note with it: read-out: Ratio IC50.
The target in data set [2] is T1, Cytochrome P450 11B2, mitochondrial (Homo sapiens, UniProt P19099).
T1 sequence (P19099 whole entry): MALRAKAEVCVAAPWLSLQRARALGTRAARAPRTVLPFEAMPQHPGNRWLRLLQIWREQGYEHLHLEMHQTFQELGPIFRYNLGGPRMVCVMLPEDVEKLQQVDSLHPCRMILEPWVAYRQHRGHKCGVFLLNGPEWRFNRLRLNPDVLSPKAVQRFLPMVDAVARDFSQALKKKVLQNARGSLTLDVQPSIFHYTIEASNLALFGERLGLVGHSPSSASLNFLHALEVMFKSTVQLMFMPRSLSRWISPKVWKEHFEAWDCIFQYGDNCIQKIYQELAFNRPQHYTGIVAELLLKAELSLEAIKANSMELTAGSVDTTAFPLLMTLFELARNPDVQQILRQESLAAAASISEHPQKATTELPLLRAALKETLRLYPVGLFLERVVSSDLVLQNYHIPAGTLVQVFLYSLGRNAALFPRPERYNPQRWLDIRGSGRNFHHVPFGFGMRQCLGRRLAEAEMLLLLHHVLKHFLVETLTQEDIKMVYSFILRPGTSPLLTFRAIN
As to the kind of experiment: Inhibition of human aldosterone synthase transfected in chinese hamster V79 cells after 24 hrs by LC-MS method. Type of data set: cell-based.

Data set [3] deals with testosterone production (relative to human aldosterone synthase). The data set is described as follows: Selectivity ratio of IC50 for testosterone production in human H295R cells to IC50 for human aldosterone synthase. Type of data set: ADME, cell-based. Particulars: read-out: Ratio IC50.
The test system of data set [4] is NCI-H295R. As to the kind of experiment: Inhibition of estradiol production in human NCI-H295R cells after 48 hrs by HPLC analysis. Type of data set: functional, cell-based.
Data set [5] deals with NCI-H295R. As to the kind of experiment: Inhibition of testosterone production in human NCI-H295R cells after 48 hrs by HPLC analysis. Type of data set: functional, cell-based.

SMILES strings stand for the structures.

In the case of `CC1(C)C[C@H](c2ccc(C#N)cc2)c2cn[nH]c21`, the values for the selectivity ratio in data set [1] and in data set [3] were 2640 and greater than 6000, respectively. Moreover, the IC50 was 0.005 µM in data set [2], 13.2 µM with NCI-H295R [4] and greater than 30 µM in the data set with NCI-H295R [5].

Take `CC1(C)CC(c2ccc(C#N)cc2F)c2cn[nH]c21` (stereo not given): the selectivity ratio is 3140 in data set [1] and greater than 4280 in data set [3]. Moreover, the IC50 in data set [2] is 0.007 µM; with NCI-H295R [4], 22 µM; with NCI-H295R [5], greater than 30 µM.

Source of the values: ChEMBL document CHEMBL2321846, “Aldosterone synthase inhibitors: targeting chronic kidney disease and diabetic nephropathy” (ACS Med Chem Lett, 2013).
